Experimental data as given in patent US7994360B2, “Benzofuran compounds” (XTL Biopharmaceuticals Ltd., priority 2005, dated 2011).

Tests used:
[1] = test system: HCV Replicon (HCV RNA) in Huh-Luc-Neo cells; assay: HCV Replicon RNA Assay (Taqman quantitative PCR of HCV RNA); format: cell-based; details: Hepatitis C virus, compound added day 0 and day 1, HCV RNA by quantitative PCR, no unit printed in table (text gives hit threshold in μM)
Description: Day 2, RNA Isolation and cDNA Synthesis: The cells are washed with 1× Phosphate Buffered Saline (PBS) once.

Huh-Luc-Neo cells = assay: CellTiter-Glo Cell Viability Assay; format: cell-based, human; details: inhibition of cell viability; for Toxicity % Inhibition at 50uM (2 doses): conditions identical to Replicon RNA assay; for Toxicity % Inhibition at 100 uM (1 dose): conditions identical to Luciferase assay (48 h)
[2] = test system: HCV Replicon (HCV IRES driven luciferase reporter) in Huh-Luc-Neo cells; assay: HCV Replicon Luciferase Assay; details: Hepatitis C virus, 48 h, read-out: Luciferase IC50

For `CC(=O)c1ccc(-c2c(-c3ccccc3Cl)oc3c(C#Cc4ccccc4Cl)cc(CO)cc23)cc1` [VQ–36165], which IC50 [1] is on record?
The IC50 was 1.31 µM.

What about the “Toxicity % Inhibition at 50uM (2 doses)” value (Huh-Luc-Neo cells) of the same molecule?
Its value is 5.7%.

What about the “Toxicity % Inhibition at 100 uM (1 dose)” value (Huh-Luc-Neo cells) of the same molecule?
Its value is 10.5%.

What about the IC50 [2] of the same molecule?
Its IC50 is 5.12 µM.

How did the IC50 [1] turn out when `CC(=O)c1ccc(-c2c(-c3ccccc3C(F)(F)F)oc3c(C#Cc4ccccc4Cl)cc(CO)cc23)cc1` [VQ–36167] was run?
The IC50 was 1.61 µM.

What about the “Toxicity % Inhibition at 50uM (2 doses)” value (Huh-Luc-Neo cells) of the same molecule?
The value was 20.2%.

And the “Toxicity % Inhibition at 100 uM (1 dose)” value (Huh-Luc-Neo cells)?
The value was 33.2%.

And the IC50 [2]?
Its IC50 is 12.2 µM.
